# From ChEMBL document CHEMBL5532755, “Unveiling the potent activity of a synthetic ion transporter against multidrug-resistant Gram-positive bacteria and biofilms” (RSC Med Chem, 2024)
# Active and inactive are the calls of the source. No cut-off for these calls is given here.
# How the values were obtained:
# Staphylococcus aureus [1] = test: Antibacterial activity against vancomycin-resistant Staphylococcus aureus 1 incubated for 16 to 18 hrs by broth dilution method; type: functional; settings: time 16-18 hrs
# Staphylococcus aureus [2] = test: Antibacterial activity against vancomycin-resistant Staphylococcus aureus 4 incubated for 16 to 18 hrs by broth dilution method; type: functional; settings: time 16-18 hrs
# Enterococcus faecium [3] = test: Antibacterial activity against vancomycin-resistant Enterococcus faecium 903 incubated for 16 to 18 hrs by broth dilution method; type: functional; settings: time 16-18 hrs
# Enterococcus faecium [4] = test: Antibacterial activity against vancomycin-resistant Enterococcus faecium 909 incubated for 16 to 18 hrs by broth dilution method; type: functional; settings: time 16-18 hrs
# Staphylococcus aureus [5] = test: Antibiofilm activity against methicillin-resistant Staphylococcus aureus ATCC 33591 assessed as eradication of enclosed biofilm measuring by reduction in green fluorescence at 32 ug/ml by Syto-9/PI staining based confocal laser scanning microscopy; type: functional, organism-based; settings: dose 32.0 µg/ml
# Staphylococcus aureus [6] = test: Induction of resistance development in methicillin-resistant Staphylococcus aureus ATCC 33591 assessed as fold increase in MIC measured after 3 days by broth dilution method relative to control; type: functional; settings: time 3.0 day
# Staphylococcus aureus [7] = test: Induction of resistance development in methicillin-resistant Staphylococcus aureus ATCC 33591 assessed as fold increase in MIC measured after 5 days by broth dilution method relative to control; type: functional; settings: time 5.0 day
# Staphylococcus aureus [8] = test: Induction of resistance development in methicillin-resistant Staphylococcus aureus ATCC 33591 assessed as fold increase in MIC measured after 10 days by broth dilution method relative to control; type: functional; settings: time 10.0 day
# [9] = test system: Staphylococcus epidermidis; test: Antibacterial activity against Staphylococcus epidermidis MTCC 3615 incubated for 16 to 18 hrs by broth dilution method; type: functional; settings: time 16-18 hrs
# Enterococcus faecium [10] = test: Antibacterial activity against Enterococcus faecium ATCC 19634 incubated for 16 to 18 hrs by broth dilution method; type: functional; settings: time 16-18 hrs
Compound,MIC (Staphylococcus aureus [1]),MIC (Staphylococcus aureus [2]),MIC (Enterococcus faecium [3]),MIC (Enterococcus faecium [4]),Activity (Staphylococcus aureus [5]),fold change (FC) (Staphylococcus aureus [6]),fold change (FC) (Staphylococcus aureus [7]),fold change (FC) (Staphylococcus aureus [8]),MIC [9],MIC (Enterococcus faecium [10])
CN[C@H](CC(C)C)C(=O)N[C@H]1C(=O)N[C@@H](CC(N)=O)C(=O)N[C@H]2C(=O)N[C@H]3C(=O)N[C@H](C(=O)N[C@H](C(=O)O)c4cc(O)cc(O)c4-c4cc3ccc4O)[C@H](O)c3ccc(c(Cl)c3)Oc3cc2cc(c3O[C@@H]2O[C@H](CO)[C@@H](O)[C@H](O)[C@H]2O[C@H]2C[C@](C)(N)[C@H](O)[C@H](C)O2)Oc2ccc(cc2Cl)[C@H]1O [VANCOMYCIN],512 µg/mL,512 µg/mL,1020 µg/mL,512 µg/mL,inactive,–,–,–,–,–
CC(=O)O[C@H]1C[C@@]2(C)[C@@H](C[C@@H](O)[C@H]3[C@@]4(C)CC[C@@H](O)[C@@H](C)[C@@H]4CC[C@@]32C)/C1=C(\CCC=C(C)C)C(=O)O,–,–,–,–,–,32,128,4000,–,–
CC(=O)NC[C@H]1CN(c2ccc(N3CCOCC3)c(F)c2)C(=O)O1 [LINEZOLID],1 µg/mL,1 µg/mL,32 µg/mL,2 µg/mL,–,–,–,–,2 µg/mL,4 µg/mL
